Experimental data reported in article PMC4947906, “Two fatty acyl reductases involved in moth pheromone biosynthesis” (Scientific Reports, 2016).

Assays:
SexpgFAR II = molecular target: T1, SexpgFAR II (Spodoptera exigua, UniProt A0A0P0IV71); assay: yeast expression, fatty alcohol by GC-MS; type: cell-based; details: fed as methyl ester 0.5 mM, 48 h, 30 °C; the acyl-CoA itself was not added
T1 construct: gene pgFARII; pYES2.1/V5-His TOPO in S. cerevisiae INVSc1
T1 sequence (A0A0P0IV71 1-454): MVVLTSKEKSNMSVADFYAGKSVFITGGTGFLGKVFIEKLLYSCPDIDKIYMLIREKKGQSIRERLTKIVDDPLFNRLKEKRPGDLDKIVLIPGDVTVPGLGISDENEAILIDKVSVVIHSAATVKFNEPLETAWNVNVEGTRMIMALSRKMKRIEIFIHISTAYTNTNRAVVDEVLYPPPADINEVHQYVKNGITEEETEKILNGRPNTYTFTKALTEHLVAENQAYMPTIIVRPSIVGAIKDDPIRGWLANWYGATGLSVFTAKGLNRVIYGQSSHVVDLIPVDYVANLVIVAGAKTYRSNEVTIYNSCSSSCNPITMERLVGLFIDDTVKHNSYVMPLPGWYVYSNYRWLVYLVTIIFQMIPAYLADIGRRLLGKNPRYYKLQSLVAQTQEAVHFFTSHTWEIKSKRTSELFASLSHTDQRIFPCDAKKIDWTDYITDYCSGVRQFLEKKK

SexpgFAR I = molecular target: T2, SexpgFAR I (Spodoptera exigua, UniProt A0A0F6NS86); assay: yeast expression, fatty alcohol by GC-MS; type: cell-based; details: fed as methyl ester 0.5 mM, 48 h, 30 °C, the acyl-CoA itself was not added
T2 construct: gene pgFARI; pYES2.1/V5-His TOPO in S. cerevisiae INVSc1
T2 sequence (A0A0F6NS86 1-459): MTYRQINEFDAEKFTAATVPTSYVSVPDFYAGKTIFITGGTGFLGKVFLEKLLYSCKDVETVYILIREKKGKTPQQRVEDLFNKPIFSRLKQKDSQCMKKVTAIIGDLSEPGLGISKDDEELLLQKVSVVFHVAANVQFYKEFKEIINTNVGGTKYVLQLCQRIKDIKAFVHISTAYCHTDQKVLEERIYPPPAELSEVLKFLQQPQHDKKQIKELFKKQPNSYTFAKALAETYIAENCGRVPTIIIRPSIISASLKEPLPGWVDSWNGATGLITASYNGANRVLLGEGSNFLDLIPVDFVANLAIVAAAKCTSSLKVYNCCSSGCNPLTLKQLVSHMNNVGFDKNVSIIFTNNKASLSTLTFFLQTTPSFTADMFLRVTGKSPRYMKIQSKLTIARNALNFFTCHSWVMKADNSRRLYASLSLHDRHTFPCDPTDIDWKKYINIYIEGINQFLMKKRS

| SMILES | yeast expression, fatty alcohol by GC-MS (SexpgFAR II) | other results |
| --- | --- | --- |
| CCCC/C=C\CCCCCCCC(=O)OC [Z9-14:acyl] | SexpgFAR II exhibits specificity for Z9-14:acid and Z9E12-14:acid precursors |  |
| CCCC/C=C\CCCCCCCCCC(=O)OC [Z11-16:acyl] |  | yeast expression, fatty alcohol by GC-MS (SexpgFAR I): SexpgFAR I produced significantly more Z11-16:OH than SexpgFAR II |
| CCCCCCCCCCCCCCCC(=O)SCCNC(=O)CCNC(=O)[C@H](O)C(C)(C)COP(=O)(O)OP(=O)(O)OC[C@H]1O[C@@H](n2cnc3c(N)ncnc32)[C@H](O)[C@@H]1OP(=O)(O)O [C16:Acyl] |  | yeast expression, fatty alcohol by GC-MS (SexpgFAR I; also endogenous C16 acyl of yeast): SexpgFAR I-transformed yeast cells produced a significantly higher quantity of C16 fatty alcohol |
| C/C=C/C/C=C\CCCCCCCC(=O)OC [Z9E12-14:acyl] | SexpgFAR II exhibits specificity for Z9-14:acid and Z9E12-14:acid precursors |  |
